Results published in paper PMC7394479 (Journal of medicinal chemistry, 2020).
“Also recorded” adds a separate entry of the source. Where two headings read alike, the source gives them in different places. Blank lines part the entries; values can stand above or below the molecule they belong to.

Tests used:
[1] = cited from earlier work
[2] = Mouse liver microsomal stability
human EP2 receptor = human EP2 receptor (Homo sapiens, UniProt P43116); assay: Cell-based cAMP TR-FRET assay, Schild KB against PGE2 at EP2; details: for fold less EP2 potency in comparison to 2a: comparator 2a; for fold less potent than equivalent nicotinic derivative: 11a vs 8b, 11b vs 8g, 11c vs 8f
Sequence of human EP2 receptor (P43116 whole entry): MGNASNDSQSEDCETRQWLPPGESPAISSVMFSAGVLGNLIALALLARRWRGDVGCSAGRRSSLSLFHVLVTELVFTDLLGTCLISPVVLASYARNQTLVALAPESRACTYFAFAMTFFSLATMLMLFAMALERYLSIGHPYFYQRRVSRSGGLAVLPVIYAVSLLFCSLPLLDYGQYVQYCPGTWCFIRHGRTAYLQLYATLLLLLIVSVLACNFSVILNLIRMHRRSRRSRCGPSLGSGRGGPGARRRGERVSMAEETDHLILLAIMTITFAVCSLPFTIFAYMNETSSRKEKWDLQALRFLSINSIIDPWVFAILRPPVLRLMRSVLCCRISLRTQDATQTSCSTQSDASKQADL

[3] = Kinetic aqueous solubility in PBS pH 7.4 by nephelometry; format: physicochemical; details: comparator 2a
human EP4 receptor = human EP4 receptor (Homo sapiens, UniProt P35408); assay: Cell-based cAMP TR-FRET assay, Schild KB against PGE2 at EP4; details: for S.I (EP4/EP2): selectivity index EP4 KB/EP2 KB
Sequence of human EP4 receptor (P35408 whole entry): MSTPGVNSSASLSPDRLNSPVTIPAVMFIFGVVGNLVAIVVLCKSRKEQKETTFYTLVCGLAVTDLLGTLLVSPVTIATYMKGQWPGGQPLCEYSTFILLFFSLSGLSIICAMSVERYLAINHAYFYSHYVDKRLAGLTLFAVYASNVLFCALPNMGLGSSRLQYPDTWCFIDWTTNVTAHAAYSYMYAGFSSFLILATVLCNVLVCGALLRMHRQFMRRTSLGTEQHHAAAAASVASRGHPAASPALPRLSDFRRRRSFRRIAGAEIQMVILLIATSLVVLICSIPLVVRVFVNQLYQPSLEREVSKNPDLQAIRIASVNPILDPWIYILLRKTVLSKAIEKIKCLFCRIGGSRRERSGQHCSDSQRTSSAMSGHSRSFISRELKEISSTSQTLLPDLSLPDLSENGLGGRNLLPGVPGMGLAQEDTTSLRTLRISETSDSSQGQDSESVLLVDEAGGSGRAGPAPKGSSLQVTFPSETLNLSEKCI

human IP receptor = human IP receptor (Homo sapiens, UniProt P43119); assay: Cell-based cAMP TR-FRET assay, Schild KB against iloprost at IP; details: for S.I (IP/EP2): selectivity index IP KB/EP2 KB
Sequence of human IP receptor (P43119 whole entry): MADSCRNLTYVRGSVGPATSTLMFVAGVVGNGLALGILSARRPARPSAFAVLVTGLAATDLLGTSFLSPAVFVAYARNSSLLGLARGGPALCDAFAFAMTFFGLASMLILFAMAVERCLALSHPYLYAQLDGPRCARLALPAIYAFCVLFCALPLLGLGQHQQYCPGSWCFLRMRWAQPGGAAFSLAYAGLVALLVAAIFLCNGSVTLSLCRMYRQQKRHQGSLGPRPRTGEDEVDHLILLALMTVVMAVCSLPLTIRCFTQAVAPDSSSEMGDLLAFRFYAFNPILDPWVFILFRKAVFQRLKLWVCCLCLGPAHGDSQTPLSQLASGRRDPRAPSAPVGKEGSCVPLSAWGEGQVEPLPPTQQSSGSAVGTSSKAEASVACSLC

[4] = Solubility in simulated gastric fluid pH 2.0 by nephelometry; format: physicochemical
human DP1 receptor = target: T1, human DP1 receptor (Homo sapiens, UniProt Q13258); assay: Cell-based cAMP TR-FRET assay, Schild KB against BW245C at DP1; details: for S.I. (DP1/EP2): selectivity index DP1 KB/EP2 KB
T1 sequence (Q13258 1-359): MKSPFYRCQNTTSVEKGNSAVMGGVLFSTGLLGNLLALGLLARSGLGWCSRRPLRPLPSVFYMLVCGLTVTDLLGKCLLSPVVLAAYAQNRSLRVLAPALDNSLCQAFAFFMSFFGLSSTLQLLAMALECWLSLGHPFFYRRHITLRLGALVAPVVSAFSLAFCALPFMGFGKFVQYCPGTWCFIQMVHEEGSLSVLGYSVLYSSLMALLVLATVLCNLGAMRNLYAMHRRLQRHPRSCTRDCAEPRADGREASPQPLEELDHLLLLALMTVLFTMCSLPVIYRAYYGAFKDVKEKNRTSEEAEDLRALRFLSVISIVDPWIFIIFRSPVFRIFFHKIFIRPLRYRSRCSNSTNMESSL

[5] = Mouse pharmacokinetics and brain-to-plasma ratio; format: in vivo
MDR1-MDCK cell line [6] = system: MDR1-MDCK cell line
[7] = 24 h shake flask thermodynamic solubility in neat water; format: physicochemical
[8] = Human liver microsomal stability; format: in vitro ADME; details: 1 μM compound, 0.5 mg/mL human liver microsomes (compounds 1 and 3)
MDR1-MDCK cell line [9] = assay: Permeability across MDR1-expressed MDCK cell monolayers
[10] = Metabolite identification in mouse liver microsomes; format: in vitro ADME; details: 20 min incubation, LC-MS/MS

S.I (EP4/EP2) (human EP4 receptor): 517
S.I (IP/EP2) (human IP receptor): 730
solubility ([4]; simulated gastric fluid): > 100 µM
SMILES: COc1ccccc1-c1ncc(C(=O)NCCc2c(C)[nH]c3ccccc23)cn1 [14a, 2-(2-Methoxyphenyl)-N-(2-(2-methyl-1H-indol-3-yl)ethyl)pyrimidine-5-carboxamide]

S.I. (DP1/EP2) (human DP1 receptor): >900
S.I (IP/EP2) (human IP receptor): >900
SMILES: Cc1[nH]c2ccccc2c1CCNC(=O)c1cnc(Nc2ccccn2)nc1 [20a, N-(2-(2-Methyl-1H-indol-3-yl)ethyl)-2-(pyridin-2-ylamino)pyrimidine-5-carboxamide]

S.I (EP4/EP2) (human EP4 receptor): >1500
S.I (IP/EP2) (human IP receptor): >1500
in vivo stability in words ([5]; mouse, in vivo): unstable in vivo
SMILES: Cc1[nH]c2ccccc2c1CCNC(=O)c1cnc(Nc2cc(F)ccn2)nc1 [20c, 2-((4-Fluoropyridin-2-yl)amino)-N-(2-(2-methyl-1H-indol-3-yl)ethyl)pyrimidine-5-carboxamide]

S.I (EP4/EP2) (human EP4 receptor): >1500
S.I (IP/EP2) (human IP receptor): >1500
SMILES: Cc1cccc(Nc2ncc(C(=O)NCCc3c(C)[nH]c4ccccc34)cn2)n1 [20e, N-(2-(2-Methyl-1H-indol-3-yl)ethyl)-2-((6-methylpyridin-2-yl)amino)pyrimidine-5-carboxamide]

fold higher half-life in mouse liver microsomes ([2]; 24i vs 20o, 20c vs 20b, 20f vs 20e): 8 fold
SMILES: Cc1[nH]c2ccccc2c1CCNC(=O)c1cnc(Nc2cccc(F)n2)nc1 [20f, 2-((6-Fluoropyridin-2-yl)amino)-N-(2-(2-methyl-1H-indol-3-yl)ethyl)pyrimidine-5-carboxamide]

Kb (human DP1 receptor): > 10 µM
S.I. (DP1/EP2) (human DP1 receptor): >1280
Kb (human IP receptor): > 10 µM
S.I (IP/EP2) (human IP receptor): >1280
SMILES: COc1cccc(Nc2ncc(C(=O)NCCc3c(C)[nH]c4ccccc34)cn2)n1 [20h, 2-((6-Methoxypyridin-2-yl)amino)-N-(2-(2-methyl-1H-indol-3-yl)ethyl)pyrimidine-5-carboxamide]

fold reduced EP2 potency in comparison to 20b (human EP2 receptor; comparator 20b): 20 fold
SMILES: CC(=O)c1ccc(Nc2ncc(C(=O)NCCc3c(C)[nH]c4ccccc34)cn2)nc1 [20l, 2-((5-Acetylpyridin-2-yl)amino)-N-(2-(2-methyl-1H-indol-3-yl)ethyl)pyrimidine-5-carboxamide]

EP2 potency in words (human EP2 receptor): complete loss of potency
SMILES: Cc1[nH]c2ccccc2c1CCNC(=O)c1cnc(Nc2ccncc2)nc1 [20p, N-(2-(2-Methyl-1H-indol-3-yl)ethyl)-2-(pyridin-4-ylamino)pyrimidine-5-carboxamide]

Kb (human EP4 receptor): > 10 µM
S.I (EP4/EP2) (human EP4 receptor): >1200
Kb (human IP receptor): > 10 µM
S.I (IP/EP2) (human IP receptor): >1200
SMILES: Cc1[nH]c2ccccc2c1CCNC(=O)c1cnc(Nc2cccnc2)nc1 [20q, N-(2-(2-Methyl-1H-indol-3-yl)ethyl)-2-(pyridin-3-ylamino)pyrimidine-5-carboxamide]

fold reduced EP2 potency (human EP2 receptor; comparator not clearly stated): 10 fold
SMILES: Cc1ccc(Nc2ncc(C(=O)NCCc3c(C)[nH]c4ccccc34)cn2)c(C)n1 [20r, 2-((2,6-Dimethylpyridin-3-yl)amino)-N-(2-(2-methyl-1H-indol-3-yl)ethyl)pyrimidine-5-carboxamide]

Kb (human EP4 receptor): > 10 µM
S.I (EP4/EP2) (human EP4 receptor): >350
Kb (human IP receptor): > 10 µM
S.I (IP/EP2) (human IP receptor): >350
SMILES: Cc1cc(C)nc(Nc2ncc(C(=O)NCCc3c(C)[nH]c4ccc(Cl)cc34)cn2)c1 [24b, N-(2-(5-Chloro-2-methyl-1H-indol-3-yl)ethyl)-2-((4,6-dimethylpyridin-2-yl)amino)pyrimidine-5-carboxamide]

Kb (human IP receptor): > 10 µM
S.I (IP/EP2) (human IP receptor): >500
solubility ([4]; simulated gastric fluid): > 100 µM
SMILES: Cc1cc(C)nc(Nc2ncc(C(=O)NCCc3c(C)[nH]c4c(F)cc(F)cc34)cn2)c1 [24c, N-(2-(5,7-Difluoro-2-methyl-1H-indol-3-yl)ethyl)-2-((4,6-dimethylpyridin-2-yl)amino)pyrimidine-5-carboxamide]

fold reduced EP2 potency in comparison to 20o (human EP2 receptor; comparator 20o): 8 fold
SMILES: Cc1cc(C)nc(Nc2ncc(C(=O)NCCc3c(C(F)(F)F)[nH]c4ccccc34)cn2)c1 [24f, 2-((4,6-Dimethylpyridin-2-yl)amino)-N-(2-(2-(trifluoromethyl)-1H-indol-3-yl)ethyl)pyrimidine-5-carboxamide]

EP2 potency in words (human EP2 receptor): eliminated the potency
SMILES: Cc1cc(C)nc(Nc2ncc(C(=O)NCC(=O)c3c(C)[nH]c4ccccc34)cn2)c1 [24h, 2-((4,6-Dimethylpyridin-2-yl)amino)-N-(2-(2-methyl-1H-indol-3-yl)-2-oxoethyl)pyrimidine-5-carboxamide]

The remaining lines, values behind:

SMILES: Cc1[nH]c2ccccc2c1CCNC(=O)c1ccc(N2CCOCC2)cc1 [2a]
half-life in mouse liver microsomes [1]: < 2 min
half-life at 1 μM ([2]; mouse, pooled liver microsomes): < 2 min

SMILES: Cc1[nH]c2ccccc2c1CCNC(=O)c1ccc(N2CCOCC2)nc1 [2b, N-(2-(2-Methyl-1H-indol-3-yl)ethyl)-6-morpholinonicotinamide]
fold less EP2 potency in comparison to 2a (human EP2 receptor): 4 fold
fold increased aqueous solubility [3]: 3 fold

SMILES: Cc1[nH]c2ccccc2c1CCNC(=O)c1ccc(-c2ccccc2F)nc1 [8e, 6-(2-Fluorophenyl)-N-(2-(2-methyl-1H-indol-3-yl)ethyl)nicotinamide]
fold less EP2 potency in comparison to 2a (human EP2 receptor): 2 fold
fold less EP2 potency in comparison to 8c (human EP2 receptor; comparator 8c (14b: vs. 14c or 8c)): 4 fold

SMILES: COc1cccc(-c2ccc(C(=O)NCCc3c(C)[nH]c4ccccc34)nc2)c1 [11a, 5-(3-Methoxyphenyl)-N-(2-(2-methyl-1H-indol-3-yl)ethyl)picolinamide]
fold less potent than equivalent nicotinic derivative (human EP2 receptor): 4 fold

SMILES: COc1cc(OC)cc(-c2ccc(C(=O)NCCc3c(C)[nH]c4ccccc34)nc2)c1 [11b, 5-(3,5-Dimethoxyphenyl)-N-(2-(2-methyl-1H-indol-3-yl)ethyl)picolinamide]
fold less potent than equivalent nicotinic derivative (human EP2 receptor): 11 fold

SMILES: Cc1cc(C)nc(Nc2ncc(C(=O)NCCc3c(C)[nH]c4ccccc34)cn2)c1 [20o, 2-((4,6-Dimethylpyridin-2-yl)amino)-N-(2-(2-methyl-1H-indol-3-yl)ethyl)pyrimidine-5-carboxamide]
solubility [4]: > 250 µM
efflux pump substrate status (MDR1-MDCK cell line [6]): not the substrate of efflux pumps
Permeability across MDR1-MDCK cell line, A-B (MDR1-MDCK cell line [6]; dog): B-A: 22.2 × 10^−6 cm/s A-B: 13.2 × 10^−6 cm/s
Permeability across MDR1-MDCK cell line, B-A (MDR1-MDCK cell line [6]; dog): B-A: 22.2 × 10^−6 cm/s A-B: 13.2 × 10^−6 cm/s

SMILES: Cc1cc(C)nc(Nc2ncc(C(=O)NCCc3c(C)[nH]c4ccccc34)cn2)c1.Cl [20o.HCl, 2-((4,6-Dimethylpyridin-2-yl)amino)-N-(2-(2-methyl-1H-indol-3-yl)ethyl)pyrimidine-5-carboxamide.Hydrochloride]
water pH after dissolving the compound ([7]; 2 mg/mL in neat water, starting pH 6.4): 3.5

SMILES: Cc1cc(C)nc(Nc2ncc(C(=O)NCCc3c(C)[nH]c4c(Cl)cc(Cl)cc34)cn2)c1.Cl [24d.HCl]
Water solubility of corresponding HCl salt ([7]; HCl salt, neat water, 2 mg/mL, 24 h shake flask, HPLC): c The solubility of compounds measured in simulated gastric fluid at pH 2.0 by nephelometry. Compound 24dis a milky-white solution in DMSO and 24 h is an inactive compound. Therefore, their solubility is not determined by nephelometry, however, 24d.HClis highly water soluble.

SMILES: COc1cc(/C=C/C(=O)NCCn2c(C(F)(F)F)cc3ccccc32)cc(OC)c1OC [compound 1]
HLM t1/2 [8]: 11 min
In vivo plasma t1/2 ([5]; mice, ip/po, 10 mg/kg dose): 1.7 (ip/po, 10 mg/kg dose) h
MLM t1/2 ([2]; 1 μM compound, 0.5 mg/mL mouse liver microsomes (compounds 1 and 3)): 10 min
Permeability across MDR1-MDCK cell line, A-B (MDR1-MDCK cell line [9]; apical-to-basolateral): 25.4 ×10⁻⁶ cm/s
Permeability across MDR1-MDCK cell line, B-A (MDR1-MDCK cell line [9]; basolateral-to-apical): 27.1 ×10⁻⁶ cm/s

SMILES: Cc1[nH]c2ccccc2c1CCNC(=O)c1ccc(-c2nnn[nH]2)cc1 [compound 3]
metabolic fragments in mouse liver microsomes [10]: did not produce any fragments even after 20 minutes of incubation; also recorded: has not shown any metabolic fragments even after 20 min of incubation
stability in mouse liver microsomes [1]: > 60 min
